The values below come from patent US20160000849A1, “COMPOSITION FOR REMEDYING OR TREATING RHEUMATOID ARTHRITIS AND OSTEOARTHRITIS” (HANPOONG PHARM & FOODS CO., LTD., priority 2013, published 2016).

In this series the test system is normal 293T cells, rat chondrocytes and human chondrocytes (HTB-94). The procedure:
The stabilities of glucosamine-HCl, glucosamine-sulfate, celecoxib and HPL-1 were analyzed by an MTT assay using normal 293T cells, rat chondrocytes and human chondrocytes (HTB-94).

As to `Cc1ccc(-c2cc(C(F)(F)F)nn2-c2ccc(S(N)(=O)=O)cc2)cc1` [celecoxib], under “human, rat”, the “concentration at which cytotoxicity was observed” value is not below 10000 ng/mL.

Turning to `Cl.N[C@H]1C(O)O[C@H](CO)[C@@H](O)[C@@H]1O` (stereo partly drawn) [glucosamine-HCl], the cytotoxicity entry is “no cytotoxicity was observed”.

`N[C@H]1C(O)O[C@H](CO)[C@@H](O)[C@@H]1O.O=S(=O)(O)O` (stereo partly drawn) [glucosamine-sulfate]: the cytotoxicity entry is given as “no cytotoxicity was observed”.
